Reference: patent US20250042857A1, “SOS1 Inhibitor With Pyrido-Fused Six-Membered Ring Structure” (HAIHE BIOPHARMA CO., LTD., priority 2021, published 2025)
Read-outs that look alike come from different tables or passages of the source.

Key:
KRAS-G12C/SOS1 = KRAS-G12C/SOS1 (Homo sapiens (Human), UniProt Q07889); assay: Detection of inhibitory effects of compounds on KRAS-G12C/SOS1 (KRASG12C/SOS binding kit, HTRF); conditions: Em665/620, read-out: IC50, inhibitory activity on interaction of KRAS-G12C/SOS1
Chain of KRAS-G12C/SOS1 (Q07889 whole entry, stated change not applied): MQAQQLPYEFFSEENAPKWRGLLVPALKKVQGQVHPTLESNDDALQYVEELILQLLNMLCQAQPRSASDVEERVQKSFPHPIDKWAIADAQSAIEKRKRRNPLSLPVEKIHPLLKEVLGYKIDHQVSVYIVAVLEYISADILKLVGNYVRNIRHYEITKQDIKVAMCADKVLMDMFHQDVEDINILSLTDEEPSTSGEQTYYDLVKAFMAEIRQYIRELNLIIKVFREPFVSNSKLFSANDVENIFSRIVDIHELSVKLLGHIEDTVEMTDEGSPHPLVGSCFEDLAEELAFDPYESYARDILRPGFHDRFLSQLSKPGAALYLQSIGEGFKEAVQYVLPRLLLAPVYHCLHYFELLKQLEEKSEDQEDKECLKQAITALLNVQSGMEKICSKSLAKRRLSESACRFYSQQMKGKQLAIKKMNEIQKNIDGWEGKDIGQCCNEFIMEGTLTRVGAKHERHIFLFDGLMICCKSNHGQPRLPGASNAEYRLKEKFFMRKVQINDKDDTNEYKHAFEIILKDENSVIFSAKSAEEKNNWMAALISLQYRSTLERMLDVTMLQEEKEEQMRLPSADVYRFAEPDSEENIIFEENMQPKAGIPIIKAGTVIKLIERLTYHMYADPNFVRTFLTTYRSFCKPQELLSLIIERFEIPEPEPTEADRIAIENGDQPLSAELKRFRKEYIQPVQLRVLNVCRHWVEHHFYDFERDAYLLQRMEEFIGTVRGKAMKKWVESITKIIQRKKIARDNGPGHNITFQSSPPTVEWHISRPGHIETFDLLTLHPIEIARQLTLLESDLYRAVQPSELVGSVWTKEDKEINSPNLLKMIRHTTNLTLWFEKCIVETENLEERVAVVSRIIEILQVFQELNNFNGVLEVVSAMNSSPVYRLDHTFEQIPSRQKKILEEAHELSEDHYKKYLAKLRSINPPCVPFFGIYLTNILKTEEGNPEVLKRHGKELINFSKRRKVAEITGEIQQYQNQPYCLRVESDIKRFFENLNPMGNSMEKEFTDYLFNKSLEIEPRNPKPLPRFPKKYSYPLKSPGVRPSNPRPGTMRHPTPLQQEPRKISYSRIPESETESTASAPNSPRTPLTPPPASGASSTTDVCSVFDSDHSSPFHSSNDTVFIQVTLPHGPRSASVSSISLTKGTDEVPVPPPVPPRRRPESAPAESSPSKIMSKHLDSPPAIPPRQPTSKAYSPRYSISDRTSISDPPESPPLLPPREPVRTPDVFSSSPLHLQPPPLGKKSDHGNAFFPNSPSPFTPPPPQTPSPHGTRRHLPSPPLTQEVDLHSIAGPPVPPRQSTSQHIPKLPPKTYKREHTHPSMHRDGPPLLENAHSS
Description: Experimental objective: The inhibitory effects of the tested compounds on KRAS-G12C/SOS1 were detected. IC50 was used to characterize the inhibitory ability of the compounds on the KRAS-G12C/SOS1. The lower IC50 value indicated the stronger inhibitory ability. BI-3406 was used as a positive control compound.
Experimental reagents: KRASG12C/SOS binding kit (Cisbio, cat. 63ADK000CB16PEG); DMSO (Sigma, cat. D8418-1L); and 384-well white plate (PerkinElmer, cat. 6007290)
• 1. Preparation of compounds: the test compounds were dissolved in 100% DMSO to obtain 10 mM stock solutions and the stock solutions were stored in a refrigerator in the dark. • 2. Kinase reaction process:
Preparation of compounds: the test compounds had the concentration of 5,000 nM and diluted in a 384-well plate into a 100% DMSO solution at the 200-fold final concentration, and the compounds were diluted 3-fold with 10 concentrations. 50 nL of the compounds at the 200-fold final concentration were transferred to the plate of interest, the 384-well plate, using a dispenser Echo 550. 50 nL of 100% DMSO was added to each negative control well and positive control well.
A Tag1-SOS1 solution at the 4-fold final concentration was prepared using a diluent buffer.
2.5 μL of the Tag1-SOS1 solution at the 4-fold final concentration was added to the 384-well plate.
A Tag2-KRAS-G12C solution at the 4-fold final concentration was prepared using the diluent buffer.
2.5 μL of the Tag2-KRAS-G12C solution at the 4-fold final concentration was respectively added into compound wells and the positive control wells; and 2.5 μL of the diluent buffer was added to the negative control wells.
The 384-well plate was centrifuged at 1,000 rpm for 30 seconds, shaken and mixed uniformly, and incubated at room temperature for 15 minutes.
An Anti-Tag1-TB3+ solution at the 1-fold final concentration and an Anti-Tag2-XL665 solution at the 1-fold final concentration were prepared using a detection buffer, the two solutions were mixed uniformly to obtain a Mix solution, and 5 μL of the Mix solution was added into each well.
The 384-well plate was centrifuged at 1,000 rpm for 30 seconds, shaken and mixed uniformly, and incubated at 4° C. for 120 minutes.
Em665/620 was read using an Envision microplate reader.
Inhibition %=(Max signal−Compound signal)/(Max signal−Min signal)×100 Calculation formula • wherein the Min signal was the mean value of the negative control wells, and the Max signal was the mean value of the positive control wells.
A dose-response curve was fitted using the log value of the concentration as an X axis and the percentage of the inhibitory rate as a Y axis by using the log(inhibitor) vs. response-variable slope of an analytical software GraphPadPrism5, thereby obtaining the IC50 value of each compound on an enzyme activity.

p-ERK of PC-9 cells = assay: p-ERK HTRF assay in PC-9 cells; format: cell-based; conditions: PC-9 lung cancer cells, 1 hour treatment, read-out: IC50, inhibitory activity on p-ERK of PC-9 cells
Protocol: IC50 Values of Compounds Determined by p-ERK HTRF Assay in PC-9 Cells
Experimental objective: an inhibitory effect of the test compounds on the phosphorylation of PC-9ERK of lung cancer cells at a cellular level was evaluated by detecting the phosphorylation of ERK.
• PRMI 1640 medium (Invitrogen-11875093) • 0.25% pancreatin (Invitrogen-25200056) • Phosphoric acid buffer salt solution (PBS, pH 7.4) (Invitrogen-10010023) • Double-antibody (PS) (Invitrogen-15140122) • Fetal bovine serum (FBS) (Gibco-10091148) • Trypan blue (Gibco-15250061) • 10-cm culture dish (Corning-430167) • 10-mL pipette (Costar-4488) • Pipettor (Sartorius-17009031) • 15-mL centrifuge tube (Corning-430052) • 50-mL centrifuge tube (Corning-430829) • Cryotube (Thermo-377267) • 1.5-mL EP tube (Axygen-MCT-150-C-S) • Cell incubator (Thermo-371) • Microscope (Olympus-CKX41) • Centrifuge (Flying Pigeon-TDL-80-2B) • Cell counter (Countstar-IC-1000) • Envision (Perkin Elmer) • Spark 10M (TECAN) • Phospho-ERK1/2 (Thr202/Tyr204) Experimental kit (Cisbio, Cat. No. 64AERPEG) • PC-9 cells: RPMI1640+10% FBS+1% PS
• 1) PBS, 0.25% pancreatin, and a cell culture medium were placed in a water-bath kettle at 37° C. for preheating; • 2) cells were observed under a microscope, a fusion degree was evaluated, and no bacterial and fungi pollution was confirmed; • 3) a culture solution was removed, the cells were washed with 5 mL of PBS and digested with 2 mL of the 0.25% trypsin, the digestion was terminated with 10 mL of the fresh cell culture medium, a culture dish was rinsed, and the cells were transferred to a 15-mL centrifuge tube; • 4) the collected cells were centrifuged at 1,000 rpm for 5 minutes; • 5) after the centrifugation, the supernatant was discarded, the cells were resuspended in 5 mL of the cell culture medium, 20 μL of the resuspended cells were aspirated, and the number and viability of viable cells were recorded; • 6) the cell culture medium was used and the cell density was adjusted (PC-9:10,000 cells/well, and 45 μL per well); • 7) in a 384-well plate, 45 μL of a cell suspension per well was transferred according to an experimental design figure; and • 8) the cells were incubated overnight at 37° C. and 5% CO2.
• 1) The compounds were diluted from the stock concentration to 10 mM with 100% DMSO (Trametinib was diluted to 1 mM), then 3-fold diluted into 10 points (5 μL of the diluted compounds with the concentration of 10 mM were transferred to 10 μL of the DMSO in an LDV plate), and centrifuged at 1,000 rpm/min for 1 minute; • 2) 5 μL of the diluted compounds of step 1) were transferred to an inter plate 1 containing 45 μL of the cell culture medium (the compounds were diluted from 1,000× to 100×); • 3) 5 μL of the diluted compounds of step 2) were transferred to an inter plate 2 containing 45 μL of the cell culture medium (the compounds were diluted from 100× to 10×); • 4) 5 μL of the compounds were pipetted from the inter plate 2 into a cell culture plate (the compounds were diluted from 10 folds to 1 fold), the final concentrations of the test compounds were 10,000 nM, 3333.33 nM, 1111.11 nM, 370.37 nM, 123.46 nM, 41.15 nM, 13.72 nM, 4.57 nM, 1.52 nM, and […], the solution was centrifuged at 1,000 rpm/min for 1 minute, and the final content of the DMSO was 0.1%; and • 5) the cells were treated in an incubator at 37° C. for 1 hour. […]

IC50 (KRAS-G12C/SOS1) [nM] | IC50 (p-ERK of PC-9 cells; Homo sapiens, PC-9, 1 h) [nM] | IC50 (p-ERK of PC-9 cells) [nM] | SMILES
≤ 100 | 300 to 1000 | – | C[C@@H](Nc1ccnc2cnc(C3(O)CCC(O)CC3)cc12)c1cccc(C(F)(F)F)c1F (single isomer, unassigned) [Compound B-85-P1]
≤ 100 | – | ≤ 300 | C[C@@H](Nc1ccnc2cnc(C3(O)CCC(O)CC3)cc12)c1cccc(C(F)(F)F)c1F (single isomer, unassigned) [Compound B-85-P2]
100 to 500 | > 1000 | – | C[C@@H](Nc1ccnc2cnc(C3(O)CCC(O)CC3)cc12)c1cccc(C(C)(F)F)c1F (single isomer, unassigned) [Compound B-87-P1]
100 to 500 | – | > 1000 | C[C@@H](Nc1ccnc2cnc(C3(O)CCC(O)CC3)cc12)c1cccc(C(C)(F)F)c1F (single isomer, unassigned) [Compound B-87-P2]
≤ 100 | 300 to 1000 | – | Cc1cc(N[C@H](C)c2cccc(C(F)F)c2F)c2cc(C3(O)CCC(O)CC3)ncc2n1 (single isomer, unassigned) [Compound B-88-P2]
≤ 100 | ≤ 300 | – | C[C@@H](Nc1ccnc2cnc(C3(O)CCC(N(C)C)CC3)cc12)c1cccc(C(F)F)c1F (single isomer, unassigned) [Compound B-94-P2]
≤ 100 | 300 to 1000 | – | C[C@@H](Nc1ccnc2cnc(C3(O)CCC(N4CCNCC4)CC3)cc12)c1cccc(C(F)F)c1F (single isomer, unassigned) [Compound B-97-P2]
100 to 500 | – | > 1000 | C[C@@H](Nc1ccnc2cnc(C3(O)CCC(C(C)(C)O)CC3)cc12)c1cccc(C(F)(F)F)c1F (single isomer, unassigned) [Compound B-115-P1]
≤ 100 | – | ≤ 300 | C[C@@H](Nc1ccnc2cnc(C3(O)CCC(C(C)(C)O)CC3)cc12)c1cccc(C(F)(F)F)c1F (single isomer, unassigned) [Compound B-115-P2]
≤ 100 | – | > 1000 | COc1nc(C2(O)CCC(O)CC2)cc2c(N[C@H](C)c3cccc(C(F)F)c3F)ccnc12 (single isomer, unassigned) [Compound B-178-P1]
≤ 100 | – | ≤ 300 | COc1nc(C2(O)CCC(O)CC2)cc2c(N[C@H](C)c3cccc(C(F)F)c3F)ccnc12 (single isomer, unassigned) [Compound B-178-P2]
≤ 100 | ≤ 300 | – | CC(=O)N1CCC(c2cc(F)c3nccc(N[C@H](C)c4cccc(C(F)F)c4F)c3c2)CC1 [Compound A-99]
≤ 100 | ≤ 300 | – | CC(=O)N1CCN(c2cc(F)c3nccc(N[C@H](C)c4cccc(C(F)F)c4F)c3c2)CC1 [Compound A-100]
≤ 100 | 300 to 1000 | – | COc1c(C2=CCN(C(C)=O)CC2)cc2c(N[C@H](C)c3cccc(C(F)F)c3F)ccnc2c1F [Compound A-101]
≤ 100 | ≤ 300 | – | COc1c(N2CCN(C(C)=O)CC2)cc2c(N[C@H](C)c3cccc(C(F)F)c3F)ccnc2c1F [Compound A-102]
≤ 100 | 300 to 1000 | – | C[C@@H](Nc1ccnc2cnc(C3CC3)cc12)c1cccc(C(F)F)c1F [Compound B-1]

IC50 (KRAS-G12C/SOS1) [nM] | IC50 (p-ERK of PC-9 cells; Homo sapiens, PC-9, 1 h) [nM] | IC50 (p-ERK of PC-9 cells) [nM] | SMILES
≤ 100 | ≤ 300 | – | CC(=O)N1CC=C(c2cc3c(N[C@H](C)c4cccc(C(F)F)c4F)ccnc3cn2)CC1 [Compound B-3]
≤ 100 | ≤ 300 | – | CC(=O)N1CCC(c2cc3c(N[C@H](C)c4cccc(C(F)F)c4F)ccnc3cn2)CC1 [Compound B-4]
≤ 100 | ≤ 300 | – | CC(=O)N1CCC(O)(c2cc3c(N[C@H](C)c4cccc(C(F)F)c4F)ccnc3cn2)CC1 [Compound B-17]
≤ 100 | 300 to 1000 | – | C[C@@H](Nc1ccnc2cnc(N3CCOCC3)cc12)c1cccc(C(F)F)c1F [Compound B-21]
≤ 100 | 300 to 1000 | – | C[C@@H](Nc1ccnc2cnc(N3CCNCC3)cc12)c1cccc(C(F)F)c1F [Compound B-22]
≤ 100 | ≤ 300 | – | CC(=O)N1CCN(c2cc3c(N[C@H](C)c4cccc(C(F)F)c4F)ccnc3cn2)CC1 [Compound B-23]
≤ 100 | ≤ 300 | – | C[C@@H](Nc1ccnc2cnc(N3CCC(O)CC3)cc12)c1cccc(C(F)F)c1F [Compound B-24]
– | 300 to 1000 | – | C[C@@H](Nc1ccnc2cnc(N3CCn4ccnc4C3)cc12)c1cccc(C(F)F)c1F [Compound B-29]
– | ≤ 300 | – | C[C@@H](Nc1ccnc2cnc(N3CCn4cncc4C3)cc12)c1cccc(C(F)F)c1F [Compound B-30]
≤ 100 | 300 to 1000 | – | C[C@@H](Nc1ccnc2cnc(N3CC[C@@H](N)C3)cc12)c1cccc(C(F)F)c1F [Compound B-31]
≤ 100 | ≤ 300 | – | CC(=O)N[C@@H]1CCN(c2cc3c(N[C@H](C)c4cccc(C(F)F)c4F)ccnc3cn2)C1 [Compound B-32]
≤ 100 | 300 to 1000 | – | C[C@@H](Nc1ccnc2cnc(N3CC[C@H](N)C3)cc12)c1cccc(C(F)F)c1F [Compound B-33]
– | ≤ 300 | – | C[C@@H](O)C(=O)N1CCC(O)(c2cc3c(N[C@H](C)c4cccc(C(F)F)c4F)ccnc3cn2)CC1 [Compound B-120]
– | > 1000 | – | C[C@@H](Nc1ccnc2cnc(C3(O)CCN(C(=O)C[C@@H]4CNCCO4)CC3)cc12)c1cccc(C(F)F)c1F [Compound B-142]
– | > 1000 | – | C[C@@H](Nc1ccnc2cnc(C3(O)CCN(C(=O)C[C@H]4CNCCO4)CC3)cc12)c1cccc(C(F)F)c1F [Compound B-143]
– | ≤ 300 | – | C[C@@H](Nc1ccnc2cnc(N3CCCS3(=O)=O)cc12)c1cccc(C#N)c1F [Compound B-166]
